US20260207602A1, “EGFR INHIBITORS” (Blueprint Medicines Corporation, priority 2022, published 2026)

Key:
[1] = biological target: T1, EGFR (d746-750) (Homo sapiens, UniProt P00533, DEL746-750); experiment: Biochemical EGFR inhibition assay (Caliper mobility shift), EGFR (d746-750); conditions: biochemical Caliper mobility shift assay, EGFR Exon 19-del enzyme; read-out: Enz EGFR Exon 19-del IC50
T1 construct: purchased SignalChem E10-122JG
Protocol: (§1) Inhibitory effects of the compounds of the disclosure were measured in biochemical assays that measure the phosphorylation activity of EGFR enzyme phosphorylates 2.5 micromolar 5-FAM-[…]-CONH2 peptide substrate (ProfilerPro Kinase Peptide Substrate 22, PerkinElmer, Part #760366) in the presence of adenosine-5′-triphosphate (ATP) and varying concentrations of the test compound in 100 mM 2-[4-(2-hydroxyethyl)piperazin-1-yl]ethanesulfonic acid (HEPES), pH 7.5, 10 mM MgCl2, 0.015% Brij-35, 1 mM dithiothreitol (DTT), 1.0% dimehylsulfoxide (DMSO). Assays were performed at 1.0 mM ATP or at ATP Km of the EGFR enzymes. Reactions proceeded until between 10% to 20% total peptides were phosphorylated at room temperature (25° C.) and were terminated with 35 mM 2,2′,2″,2′″-(ethane-1,2-diyldinitrilo)tetraacetic acid (EDTA). Product was detected using the Caliper mobility shift detection method where the phosphorylated peptide (product) and substrate were electrophoretically separated and measured. Percent activity was plotted against log concentration of compound and points to generate an apparent IC50. The following enzyme forms of • EGFR were examples that were used in these assays: • EGFR WT (SignalChem, E10-112G) • EGFR L858R (SignalChem, E10-122BG) • EGFR (d746-750) (SignalChem, E10-122JG) • EGFR L858R C797S (SignalChem, E10-122ZG) • EGFR (d746-750) C797S (SignalChem, E10-122TG)

[2] = biological target: intracellular phosphorylation of EGFR (Tyr1068) in PC-9 cells (Homo sapiens, UniProt P00533, DEL746-750); experiment: PC-9 pEGFR AlphaLISA assay; assay type: cell-based; conditions: 4 hours incubation, read-out: Phos EGFR PC9 IC50
Protocol: PC-9/A431 pEGFR AlphaLISA Assays
Inhibitory effects of compounds were evaluated in cellular assays that measure level of intracellular phosphorylation of EGFR in PC-9 (ECACC, #90071810, Milipore/Sigma) and A431 cell lines (ATCC, CRL-1555) using AlphaLISA sureFire ultra p-EGFR (Tyr1068) assay kit (PerkinElmer, ALSU-PEGFR-A50K). PC-9 cells were seeded at 3.125×10^5 cells/ml in 40 μL phenol-free DMEM supplemented with 10% FBS per well of a 384 well plate (Corning, 3764), while A431 were seeded at […] in 40 μL in phenol-free DMEM with 0.5% FBS. Cells were allowed to adhere overnight at 37° C./5% CO2. On the next day, compounds were transferred at 4-fold, 10-point serial dilution from compound source plate to cell plates using liquid handler Echo550 and were incubated at 37° C./5% CO2 for 4 hours. A431 cells were stimulated prior harvesting for 10 min with EGF at final concentration of 30 ng/ml in the incubator. Medium was removed from the plates and cells were lysed with 10 μL of 1× AlphaLISA lysis buffer (supplemented with 1× protease/phosphatase inhibitor cocktail) followed by shaking at 600 rpm for 30 minutes at room temperature. Lysates were transferred to Optiplate (Apricot designs) and 5 ul of 1× acceptor bead mix (prepared just before use) was added to each well followed by incubation at room temperature for 1.5-2 h in dark. Then 5 μL of freshly-made donor bead mix is added to each well under subdued lighting or green filters, was mixed well on the shaker and the plate was sealed and left for an overnight incubation at room temperature in dark. On the next day, the plate was read the Envision using standard AlphaLisa settings. Percent of pEGFR inhibition was plotted against log concentration of compounds to generate IC50 values.

[3] = biological target: T2, EGFR L858R (Homo sapiens, UniProt P00533, L858R); experiment: Biochemical EGFR inhibition assay (Caliper mobility shift), EGFR L858R; conditions: biochemical Caliper mobility shift assay, EGFR L858R enzyme; read-out: Enz EGFR L858R IC50
T2 construct: purchased SignalChem E10-122BG
Protocol: as §1

T2 sequence (P00533 25-1210 L858R): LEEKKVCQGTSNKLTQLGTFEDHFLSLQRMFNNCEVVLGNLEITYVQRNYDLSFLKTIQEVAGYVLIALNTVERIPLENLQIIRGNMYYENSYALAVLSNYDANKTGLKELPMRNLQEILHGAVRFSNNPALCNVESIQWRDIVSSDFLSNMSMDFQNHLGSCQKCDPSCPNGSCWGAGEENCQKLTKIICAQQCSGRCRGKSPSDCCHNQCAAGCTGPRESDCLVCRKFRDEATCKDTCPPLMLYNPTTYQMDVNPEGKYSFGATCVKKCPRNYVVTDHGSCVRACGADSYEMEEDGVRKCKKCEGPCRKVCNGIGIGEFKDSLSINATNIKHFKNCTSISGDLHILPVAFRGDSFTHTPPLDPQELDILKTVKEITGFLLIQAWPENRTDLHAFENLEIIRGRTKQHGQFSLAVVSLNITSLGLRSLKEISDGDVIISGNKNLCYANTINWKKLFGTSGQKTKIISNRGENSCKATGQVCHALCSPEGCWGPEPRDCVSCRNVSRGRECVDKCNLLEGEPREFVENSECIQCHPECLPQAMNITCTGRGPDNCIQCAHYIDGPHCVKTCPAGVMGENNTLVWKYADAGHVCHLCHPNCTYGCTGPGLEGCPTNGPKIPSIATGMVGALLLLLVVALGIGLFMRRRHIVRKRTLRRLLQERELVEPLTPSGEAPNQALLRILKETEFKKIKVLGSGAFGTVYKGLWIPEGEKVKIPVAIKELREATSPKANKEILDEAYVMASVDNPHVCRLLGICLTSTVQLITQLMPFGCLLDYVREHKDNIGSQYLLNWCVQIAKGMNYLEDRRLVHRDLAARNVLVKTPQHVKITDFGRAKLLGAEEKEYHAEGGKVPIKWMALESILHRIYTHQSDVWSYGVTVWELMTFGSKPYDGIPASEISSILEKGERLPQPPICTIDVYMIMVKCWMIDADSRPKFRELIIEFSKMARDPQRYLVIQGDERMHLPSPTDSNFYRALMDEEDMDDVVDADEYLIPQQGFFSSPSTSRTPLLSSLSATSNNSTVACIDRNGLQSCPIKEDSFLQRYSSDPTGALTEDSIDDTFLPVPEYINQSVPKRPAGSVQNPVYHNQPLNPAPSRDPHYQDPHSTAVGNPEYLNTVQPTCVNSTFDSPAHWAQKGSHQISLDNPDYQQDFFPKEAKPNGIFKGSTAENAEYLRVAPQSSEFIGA
T1 sequence (P00533 with tags, fused parts or gaps DEL746-750 limits assumed): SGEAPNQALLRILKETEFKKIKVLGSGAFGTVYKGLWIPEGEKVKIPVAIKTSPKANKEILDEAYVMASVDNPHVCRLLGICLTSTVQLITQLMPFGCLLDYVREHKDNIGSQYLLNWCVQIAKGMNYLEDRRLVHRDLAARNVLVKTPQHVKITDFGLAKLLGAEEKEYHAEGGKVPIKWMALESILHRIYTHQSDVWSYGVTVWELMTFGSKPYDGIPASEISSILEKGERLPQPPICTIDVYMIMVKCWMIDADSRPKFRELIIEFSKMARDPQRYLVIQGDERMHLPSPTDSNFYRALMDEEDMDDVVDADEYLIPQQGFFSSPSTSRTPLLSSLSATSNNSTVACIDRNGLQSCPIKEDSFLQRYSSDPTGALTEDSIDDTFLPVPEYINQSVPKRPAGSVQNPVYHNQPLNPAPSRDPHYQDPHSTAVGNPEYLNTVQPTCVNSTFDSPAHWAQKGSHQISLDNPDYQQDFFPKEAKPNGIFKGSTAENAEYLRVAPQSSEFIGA
intracellular phosphorylation of EGFR (Tyr1068) in PC-9 cells, sequence (P00533 with tags, fused parts or gaps DEL746-750): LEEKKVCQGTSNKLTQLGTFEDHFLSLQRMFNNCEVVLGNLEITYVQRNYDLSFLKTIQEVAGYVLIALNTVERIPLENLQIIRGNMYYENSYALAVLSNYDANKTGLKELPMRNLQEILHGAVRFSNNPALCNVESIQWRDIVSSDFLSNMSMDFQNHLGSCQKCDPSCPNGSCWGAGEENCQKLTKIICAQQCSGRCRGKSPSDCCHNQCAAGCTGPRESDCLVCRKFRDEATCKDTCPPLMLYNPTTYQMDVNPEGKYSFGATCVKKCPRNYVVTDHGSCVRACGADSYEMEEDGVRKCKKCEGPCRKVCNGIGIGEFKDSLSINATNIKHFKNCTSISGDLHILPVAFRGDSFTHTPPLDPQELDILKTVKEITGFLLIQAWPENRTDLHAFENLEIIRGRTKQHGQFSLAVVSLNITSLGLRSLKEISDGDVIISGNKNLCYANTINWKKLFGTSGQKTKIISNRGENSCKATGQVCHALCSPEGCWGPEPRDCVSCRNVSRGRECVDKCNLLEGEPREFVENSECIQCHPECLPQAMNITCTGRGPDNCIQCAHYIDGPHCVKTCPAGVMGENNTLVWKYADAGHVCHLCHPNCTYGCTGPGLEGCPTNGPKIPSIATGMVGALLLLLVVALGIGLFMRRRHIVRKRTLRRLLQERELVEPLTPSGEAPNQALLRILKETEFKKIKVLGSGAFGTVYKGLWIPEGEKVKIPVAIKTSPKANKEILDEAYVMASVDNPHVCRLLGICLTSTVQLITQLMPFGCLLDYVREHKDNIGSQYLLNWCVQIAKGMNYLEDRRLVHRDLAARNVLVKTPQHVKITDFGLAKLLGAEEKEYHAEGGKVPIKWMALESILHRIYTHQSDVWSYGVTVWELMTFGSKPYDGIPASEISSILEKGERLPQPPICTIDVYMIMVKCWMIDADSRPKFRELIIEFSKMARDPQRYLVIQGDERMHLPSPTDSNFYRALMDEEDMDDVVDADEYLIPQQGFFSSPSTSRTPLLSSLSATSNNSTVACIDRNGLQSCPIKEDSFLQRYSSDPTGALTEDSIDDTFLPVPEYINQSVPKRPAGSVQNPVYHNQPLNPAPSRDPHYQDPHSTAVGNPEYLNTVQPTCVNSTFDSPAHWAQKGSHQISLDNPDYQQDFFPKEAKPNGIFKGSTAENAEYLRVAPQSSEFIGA

| Compound | IC50 [1] | IC50 [2] | IC50 [3] |
| --- | --- | --- | --- |
| COc1nn(C)cc1-c1cc(O[C@H]2CN(C)C[C@@H]2F)c2c(Nc3ccc4ncsc4c3)ncnc2c1 (single isomer, unassigned) [Example 377] | 10.1 to 50 nM | 10.1 to 50 nM | 10.1 to 50 nM |
| Cn1cc(-c2cc(O[C@H]3COC[C@H]3F)c3c(Nc4ccc5ncsc5c4)ncnc3c2)cn1 (racemic) [Example A10, N-(5-(((3S,4R)-4-fluorotetrahydrofuran-3-yl)oxy)-7-(1-methyl-1H-pyrazol-4-yl)quinazolin-4-yl)benzo[d]thiazol-6-amine] | ≤ 10 nM | ≤ 10 nM | ≤ 10 nM |
| COc1nn(C)cc1-c1cc(O[C@H]2COC[C@@H]2O)c2c(Nc3ccc4ncsc4c3)ncnc2c1 (single isomer, unassigned) [Example A49] | ≤ 10 nM | 10.1 to 50 nM | 10.1 to 50 nM |
| Cn1cc(-c2cc(O[C@@H]3CC[C@@H](O)C3)c3c(Nc4ccc5ncsc5c4)ncnc3c2)cn1 [Example 410, (1R,3R)-3-((4-(benzo[d]thiazol-6-ylamino)-7-(1-methyl-1H-pyrazol-4-yl)quinazolin-5-yl)oxy)cyclopentan-1-ol] | ≤ 10 nM | ≤ 10 nM | ≤ 10 nM |
| CC(Oc1cc(N2CCN(C)C3CC32)cc2ncnc(Nc3ccc4ncsc4c3)c12)C1COC1 [Example 300, N-(7-((1R,6S)-5-methyl-2,5-diazabicyclo[4.1.0]heptan-2-yl)-5-((R)-1-(oxetan-3-yl)ethoxy)quinazolin-4-yl)benzo[d]thiazol-6-amine, OR N-(7-((1S,6R)-5-methyl-2,5-diazabicyclo[4.1.0]heptan-2-yl)-5-((R)-1-(oxetan-3-yl)ethoxy)quinazolin-4-yl)benzo[d]thiazol-6-amine] | ≤ 10 nM | ≤ 10 nM | 10.1 to 50 nM |
| Cn1cc(-c2cc(OC3CCCOC3)c3c(Nc4ccc5ncsc5c4)ncnc3c2)cn1 (stereo not drawn) [Example 414, N-(7-(1-methyl-1H-pyrazol-4-yl)-5-((tetrahydro-2H-pyran-3-yl)oxy)quinazolin-4-yl)benzo[d]thiazol-6-amine] | ≤ 10 nM | ≤ 10 nM | ≤ 10 nM |
| Cn1cc(-c2cc(OC3CCN(CC(F)F)CC3)c3c(Nc4ccc5ncsc5c4)ncnc3c2)cn1 [Example 311, N-(5-((1-(2,2-difluoroethyl)piperidin-4-yl)oxy)-7-(1-methyl-1H-pyrazol-4-yl)quinazolin-4-yl)benzo[d]thiazol-6-amine] | ≤ 10 nM | ≤ 10 nM | ≤ 10 nM |
| CN1C[C@H](F)C[C@H](Oc2cc(-c3cnn(C)c3)cc3ncnc(Nc4ccc5ncsc5c4)c23)C1 (single isomer, unassigned) [Example 336] | ≤ 10 nM | ≤ 10 nM | ≤ 10 nM |
| C[C@@H](Oc1c(F)c(-c2cnn(C)c2)cc2ncnc(Nc3ccc4ncsc4c3F)c12)C1COC1 (single isomer, unassigned) [Example A28] | ≤ 10 nM | > 50.1 nM | 10.1 to 50 nM |
| Cn1cc(-c2cc(O[C@@H]3CC[C@H]3O)c3c(Nc4ccc5ncsc5c4)ncnc3c2)cn1 (single isomer, unassigned) [Example A53] | ≤ 10 nM | ≤ 10 nM | ≤ 10 nM |
| COc1cc2ncnc(Nc3ccc4ncsc4c3)c2cc1N[C@H]1CCN(C)C[C@@H]1F [Example 393, N4-(benzo[d]thiazol-6-yl)-N6-((3S,4S)-3-fluoro-1-methylpiperidin-4-yl)-7-methoxyquinazoline-4,6-diamine] | ≤ 10 nM | ≤ 10 nM | ≤ 10 nM |
| C[C@@H](Oc1cc(-c2cn(C)n(C(F)F)c2=O)cc2ncnc(Nc3ccc4ncsc4c3)c12)C1COC1 (single isomer, unassigned) [Example 174] | ≤ 10 nM | ≤ 10 nM | ≤ 10 nM |
| CN1CCC(Oc2cc(-c3cnn(C)c3)cc3ncnc(Nc4ccc5ncsc5c4)c23)C(F)(F)C1 (stereo not drawn) [Example 2, N-(5-((3,3-difluoro-1-methylpiperidin-4-yl)oxy)-7-(1-methyl-1H-pyrazol-4-yl)quinazolin-4-yl)benzo[d]thiazol-6-amine] | ≤ 10 nM | ≤ 10 nM | ≤ 10 nM |
| C[C@@H](Oc1cc(-c2cnn(C)c2)cc2ncnc(Nc3ccc4ncsc4c3)c12)[C@H]1CN(C)CCO1 (single isomer, unassigned) [Example 209] | ≤ 10 nM | ≤ 10 nM | ≤ 10 nM |
| C[C@@H](Oc1cc(-c2cnn(C)c2)cc2ncnc(Nc3ccc4ncsc4c3)c12)C(CO)CN(C)C (mixture of isomers) [Example A55, rac-(3R)-3-((4-(benzo[d]thiazol-6-ylamino)-7-(1-methyl-1H-pyrazol-4-yl)quinazolin-5-yl)oxy)-2-((dimethylamino)methyl)butan-1-ol] | ≤ 10 nM | ≤ 10 nM | ≤ 10 nM |
| CN1CC[C@H](Oc2cc(-c3cn(C)nc3OC(F)F)cc3ncnc(Nc4ccc5ncsc5c4)c23)[C@@H](F)C1 (single isomer, unassigned) [Example 368] | ≤ 10 nM | 10.1 to 50 nM | ≤ 10 nM |
| C[C@@H](Oc1cc(-c2cnn(C)c2)cc2ncnc(Nc3ccc4ncsc4c3F)c12)C(=O)N(C)C (single isomer, unassigned) [Example 279] | ≤ 10 nM | ≤ 10 nM | ≤ 10 nM |
| C[C@@H](Oc1cc(-c2cnn(C)c2)cc2ncnc(Nc3ccc4ncsc4c3)c12)C(CO)CO [Example A56, (R)-2-(1-((4-(benzo[d]thiazol-6-ylamino)-7-(1-methyl-1H-pyrazol-4-yl)quinazolin-5-yl)oxy)ethyl)propane-1,3-diol] | ≤ 10 nM | ≤ 10 nM | ≤ 10 nM |
| CC(Oc1cc(-c2cn(C)nc2OC(F)F)cc2ncnc(Nc3ccc4ncsc4c3)c12)C1COC1 (single isomer, unassigned) [Example 172] | ≤ 10 nM | 10.1 to 50 nM | ≤ 10 nM |
| Cn1cc(-c2cc(OC(CO)CO)c3c(Nc4ccc5ncsc5c4)ncnc3c2)cn1 [Example 29, 2-((4-(benzo[d]thiazol-6-ylamino)-7-(1-methyl-1H-pyrazol-4-yl)quinazolin-5-yl)oxy)propane-1,3-diol] | ≤ 10 nM | 10.1 to 50 nM | ≤ 10 nM |
| CCC(=O)N1CCC(Nc2cc3c(Nc4ccc5ncsc5c4)ncnc3cc2-c2ccn(C)n2)CC1 [Example 257, 1-(4-((4-(benzo[d]thiazol-6-ylamino)-7-(1-methyl-1H-pyrazol-3-yl)quinazolin-6-yl)amino)piperidin-1-yl)propan-1-one] | ≤ 10 nM | ≤ 10 nM | ≤ 10 nM |
| COc1nn(C)cc1-c1cc(O[C@@H]2CCNC[C@@H]2F)c2c(Nc3ccc4ncsc4c3)ncnc2c1 [Example 363, N-(5-(((3S,4R)-3-fluoropiperidin-4-yl)oxy)-7-(3-methoxy-1-methyl-1H-pyrazol-4-yl)quinazolin-4-yl)benzo[d]thiazol-6-amine] | ≤ 10 nM | ≤ 10 nM | ≤ 10 nM |
| Cn1cc(-c2cc(O[C@H]3COC[C@@H]3O)c3c(Nc4ccc5ncsc5c4)ncnc3c2)cn1 (single isomer, unassigned) [Example A30] | ≤ 10 nM | > 50.1 nM | ≤ 10 nM |
| CN1CC[C@H](Oc2cc(-c3cnn(C)c3)cc3ncnc(Nc4ccc5ncsc5c4F)c23)C1=O (single isomer, unassigned) [Example 72] | ≤ 10 nM | ≤ 10 nM | ≤ 10 nM |
